Like-named read-outs stand apart in the source and are kept apart here.
Experiments:
S. schleiferi = assay: Growth inhibition of Staphylococcus species assay; type: cell-based; details: read-out: Bacterial IC50 (Mean ± SD) S.s.
S. pseudintermedius [1] = assay: Growth inhibition of Staphylococcus species assay; type: cell-based; details: read-out: Bacterial IC50 (Mean ± SD) S.p.
S. chromogenes [2] = assay: Growth inhibition of Staphylococcus species assay; type: cell-based; details: read-out: Bacterial IC50 (Mean ± SD) S.c.
recombinant DXR enzyme [3] = assay: DXR enzyme activity assay; type: biochemical; details: recombinant S. chromogenes DXR, n=3; read-out: S. chromogenes IC50 (mean ± SD)
recombinant DXR enzyme [4] = assay: DXR enzyme activity assay; type: biochemical; details: read-out: S. schleiferi IC50 (mean ± SD)
S. aureus = type: cell-based; details: read-out: Bacterial IC50 (Mean ± SD) S.a.
S. schleferi = type: cell-based, S. schleiferi
S. pseudintermedius [5] = type: cell-based
S. chromogenes [6] = type: cell-based
P. falciparum = details: read-out: inhibition of P. falciparum growth IC50; cited from earlier work
[7] = S. schleiferi growth, LB media, 20 h, OD600

`COCOCOCOP(=O)(/C=C/CN(O)C=O)OCOCOCOC` [JXW-573] gave an IC50 (S. schleiferi; [7]) of 30 nM, an IC50 (S. pseudintermedius [1]; S. pseudintermedius growth, LB media, 20 h, OD600) of 210 ± 40 nM and an IC50 (S. chromogenes [2]; S. chromogenes growth, LB media, 20 h, OD600) of 40 nM. The IC50 (recombinant DXR enzyme [3]) was 15200 ± 2360 nM and the IC50 (recombinant DXR enzyme [4]; recombinant S. schleiferi DXR, n=3) was 12600 ± 1880 nM.

Work on `CC(C)(C)C(=O)OCOP(=O)(/C=C/CN(O)C(=O)CCCc1ccccc1)OCOC(=O)C(C)(C)C` [JXW-168] yielded an IC50 (S. schleiferi; [7]) of 8700 nM.

Work on `CC(C)(C)C(=O)OCOP(=O)(/C=C/CN(O)C(=O)c1ccccc1)OCOC(=O)C(C)(C)C` [JXW-189] yielded an IC50 (S. schleiferi; [7]) of 1300 nM.

`CC(=O)N(O)C/C=C/P(=O)(OCOC(=O)c1ccccc1)OCOC(=O)c1ccccc1` [KMH-102] showed an IC50 (S. schleiferi; [7]) of 210 ± 50 nM.

Molecule `O=CN(O)CCCP(=O)(O)O` [fosmidomycin] has an IC50 (S. schleiferi) of 780 ± 130 nM, an IC50 (S. pseudintermedius [1]) of 310 ± 40 nM and an IC50 (S. chromogenes [2]) of 310 ± 10 nM. The IC50 (S. aureus) was greater than 100000 nM, the IC50 (recombinant DXR enzyme [4]) was 670 ± 60 nM and the “bacteriostatic or bactericidal in S. schleferi” value (S. schleferi) was “bacteriostatic”. For the same molecule, the “bacteriostatic or bactericidal in S. pseudintermedius” value (S. pseudintermedius [5]) was “bacteriostatic”, the “bacteriostatic or bactericidal in S. chromogenes” value (S. chromogenes [6]) was “bacteriostatic” and the IC50 (P. falciparum) was 90 to 350 nM.
